The source made the active and inactive calls. No cut-off for these calls is given here. A value given as a limit tells only on which side of the number the result lay.

Data on three compounds can be found in ChEMBL document CHEMBL2176881, “Development of N-[4-[6-(isopropylamino)pyrimidin-4-yl]-1,3-thiazol-2-yl]-N-methyl-4-[11C]methylbenzamide for positron emission tomography imaging of metabotropic glutamate 1 receptor in monkey brain” (J Med Chem, 2012).

Series [1] addresses Metabotropic glutamate receptor 1 (Rattus norvegicus, UniProt P23385). The experiment in a line: Displacement of [18F]FITM from mGlu1 receptor in rat brain homogenates after 1 hr by gamma counting. Format: tissue-based. (Loss of bound radioactivity is the signal in a displacement assay; it reports binding, not function.)
The target of series [2] is Metabotropic glutamate receptor 5 (Rattus norvegicus, UniProt P31424). Kind of series: Displacement of [11C]-ABP688 from mGlu5 receptor in rat brain homogenates after 1 hr by gamma counting. Format: tissue-based.
The target in series [3] is Metabotropic glutamate receptor 1 (Rattus norvegicus) (UniProt P23385). Kind of series: Binding affinity to mGlu1 receptor in rat brain substantia nigra pars reticulate at 7.4 MBq after 60 mins by autoradiography. As to conditions: 7.4 M, tested as the 14C-labelled form. Format: tissue-based.
Series [4] has the same target. Kind of series: Binding affinity to mGlu1 receptor in rat cerebellum at 7.4 MBq after 60 mins by autoradiography. Format: tissue-based. As to conditions: 7.4 M, tested as the 14C-labelled form.
The target is the same in series [5]. Kind of series: Binding affinity to mGlu1 receptor in rat striatum. Format: tissue-based.
Series [6] has the same target. Kind of series: Binding affinity to mGlu1 receptor in rat brain pons at 7.4 MBq after 60 mins by autoradiography. It is filed as tissue-based. As to conditions: 7.4 M, tested as the 14C-labelled form.
For series [7] the target is unchanged. Kind of series: Binding affinity to mGlu1 receptor in rat brain cerebral cortex at 7.4 MBq after 60 mins by autoradiography. It is filed as tissue-based. As to conditions: 7.4 M, tested as the 14C-labelled form.
For series [8] the target is unchanged. The experiment in a line: Binding affinity to mGlu1 receptor in rat hippocampus at 7.4 MBq after 60 mins by autoradiography. It is filed as tissue-based. The conditions noted are these: 7.4 M, tested as the 14C-labelled form.
For series [9] the target is unchanged. The experiment in a line: Binding affinity to mGlu1 receptor in rat brain homogenates at 7.4 MBq after 60 mins by autoradiography in presence of unlabeled 4-(6-chloropyrimidin-4-yl)-N-methylthiazol-2-amine. It is filed as tissue-based. The conditions noted are these: 7.4 M, tested as the 14C-labelled form.
The target is the same in series [10]. Kind of series: Binding affinity to mGlu1 receptor in rat brain homogenates at 7.4 MBq after 60 mins by autoradiography in presence of unlabeled N-[4-[6-(Isopropylamino)pyrimidin-4-yl]-1,3-thiazol-2-yl]- N,4-dimethylbenzamide. As to conditions: 7.4 M, tested as the 14C-labelled form. Format: tissue-based.
Series [11] shares this target. The experiment in a line: Binding affinity to mGlu1 receptor in rat thalamus. Format: tissue-based.
For series [12] the target is unchanged. The experiment in a line: Binding affinity to mGlu1 receptor in rat thalamus at 7.4 MBq after 60 mins by autoradiography. It is filed as tissue-based. The conditions noted are these: 7.4 M, tested as the 14C-labelled form.
Series [13] shares this target. Kind of series: Binding affinity to mGlu1 receptor in rat hippocampus. Format: tissue-based.
Series [14] is described as follows: Lipophilicity, log D of the compound by shake flask method. It is filed as physicochemical. As to conditions: octanol/water.
The target of series [15] is Metabotropic glutamate receptor 1 (Rattus norvegicus) (UniProt P23385). Kind of series: Binding affinity to mGlu1 receptor in rat striatum at 7.4 MBq after 60 mins by autoradiography. Format: tissue-based. As to conditions: 7.4 M, tested as the 14C-labelled form.

Sequence of Metabotropic glutamate receptor 1 (Rattus norvegicus) (P23385 19-1199 limits assumed): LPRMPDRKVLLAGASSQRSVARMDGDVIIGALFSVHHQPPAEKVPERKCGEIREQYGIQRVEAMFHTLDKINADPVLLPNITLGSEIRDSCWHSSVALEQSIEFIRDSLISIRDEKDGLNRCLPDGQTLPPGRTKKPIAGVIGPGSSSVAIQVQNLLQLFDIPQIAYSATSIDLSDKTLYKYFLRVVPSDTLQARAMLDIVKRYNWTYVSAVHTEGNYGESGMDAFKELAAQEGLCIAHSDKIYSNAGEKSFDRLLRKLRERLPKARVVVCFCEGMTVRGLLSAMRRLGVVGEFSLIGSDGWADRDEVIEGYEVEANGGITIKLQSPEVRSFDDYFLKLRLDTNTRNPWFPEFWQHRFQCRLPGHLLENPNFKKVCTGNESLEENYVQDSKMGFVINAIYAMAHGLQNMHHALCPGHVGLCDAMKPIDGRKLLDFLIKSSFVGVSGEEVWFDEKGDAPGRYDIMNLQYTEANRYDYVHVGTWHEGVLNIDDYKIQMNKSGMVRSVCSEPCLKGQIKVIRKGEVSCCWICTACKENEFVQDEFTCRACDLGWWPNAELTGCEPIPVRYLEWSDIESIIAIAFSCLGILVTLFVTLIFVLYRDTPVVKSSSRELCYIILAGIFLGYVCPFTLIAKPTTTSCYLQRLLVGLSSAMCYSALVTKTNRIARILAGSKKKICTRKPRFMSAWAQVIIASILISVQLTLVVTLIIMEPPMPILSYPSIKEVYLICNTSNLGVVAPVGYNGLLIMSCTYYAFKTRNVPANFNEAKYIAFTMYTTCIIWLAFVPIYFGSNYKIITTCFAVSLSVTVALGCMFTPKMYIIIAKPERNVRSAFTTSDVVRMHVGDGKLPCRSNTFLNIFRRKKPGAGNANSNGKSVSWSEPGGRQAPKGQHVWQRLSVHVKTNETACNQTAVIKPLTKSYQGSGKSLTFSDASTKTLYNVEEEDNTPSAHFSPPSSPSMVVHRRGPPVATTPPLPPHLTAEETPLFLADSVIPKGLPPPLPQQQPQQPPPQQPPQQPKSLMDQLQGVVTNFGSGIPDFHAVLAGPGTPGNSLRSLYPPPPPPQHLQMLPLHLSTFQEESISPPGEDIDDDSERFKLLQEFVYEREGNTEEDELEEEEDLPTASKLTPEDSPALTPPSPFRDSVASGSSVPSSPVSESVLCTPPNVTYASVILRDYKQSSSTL
Sequence of Metabotropic glutamate receptor 5 (P31424 whole entry): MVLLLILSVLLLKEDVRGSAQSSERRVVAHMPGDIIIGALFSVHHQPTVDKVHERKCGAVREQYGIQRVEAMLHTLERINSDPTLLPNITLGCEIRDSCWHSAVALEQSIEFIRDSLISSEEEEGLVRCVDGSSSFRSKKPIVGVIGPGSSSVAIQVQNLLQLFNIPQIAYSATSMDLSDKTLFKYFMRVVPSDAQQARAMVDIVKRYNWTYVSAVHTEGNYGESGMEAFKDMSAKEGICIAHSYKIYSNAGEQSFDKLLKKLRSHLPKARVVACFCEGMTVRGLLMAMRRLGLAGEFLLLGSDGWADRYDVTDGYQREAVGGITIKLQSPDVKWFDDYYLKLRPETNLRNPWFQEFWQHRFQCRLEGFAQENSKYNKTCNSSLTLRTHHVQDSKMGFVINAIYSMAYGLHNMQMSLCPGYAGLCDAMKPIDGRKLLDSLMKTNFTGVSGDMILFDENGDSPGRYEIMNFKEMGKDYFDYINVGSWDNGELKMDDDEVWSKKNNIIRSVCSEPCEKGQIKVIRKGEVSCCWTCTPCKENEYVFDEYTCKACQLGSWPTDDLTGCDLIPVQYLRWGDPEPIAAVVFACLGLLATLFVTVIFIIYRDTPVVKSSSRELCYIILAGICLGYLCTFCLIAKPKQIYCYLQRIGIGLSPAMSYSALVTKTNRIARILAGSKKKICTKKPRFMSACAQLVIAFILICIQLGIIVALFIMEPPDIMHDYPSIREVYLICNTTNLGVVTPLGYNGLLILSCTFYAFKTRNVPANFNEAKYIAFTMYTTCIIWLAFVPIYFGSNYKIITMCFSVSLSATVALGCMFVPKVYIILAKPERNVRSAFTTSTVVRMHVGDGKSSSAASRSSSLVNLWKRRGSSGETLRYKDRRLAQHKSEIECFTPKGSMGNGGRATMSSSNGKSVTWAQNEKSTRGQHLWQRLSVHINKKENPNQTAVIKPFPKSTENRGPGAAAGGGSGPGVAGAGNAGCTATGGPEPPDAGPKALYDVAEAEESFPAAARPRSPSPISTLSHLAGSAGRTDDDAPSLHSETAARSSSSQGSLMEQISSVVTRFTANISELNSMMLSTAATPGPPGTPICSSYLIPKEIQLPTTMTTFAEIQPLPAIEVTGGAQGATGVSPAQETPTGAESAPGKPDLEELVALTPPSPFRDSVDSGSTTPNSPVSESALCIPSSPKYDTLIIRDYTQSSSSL
Sequence of Metabotropic glutamate receptor 1 (P23385 whole entry): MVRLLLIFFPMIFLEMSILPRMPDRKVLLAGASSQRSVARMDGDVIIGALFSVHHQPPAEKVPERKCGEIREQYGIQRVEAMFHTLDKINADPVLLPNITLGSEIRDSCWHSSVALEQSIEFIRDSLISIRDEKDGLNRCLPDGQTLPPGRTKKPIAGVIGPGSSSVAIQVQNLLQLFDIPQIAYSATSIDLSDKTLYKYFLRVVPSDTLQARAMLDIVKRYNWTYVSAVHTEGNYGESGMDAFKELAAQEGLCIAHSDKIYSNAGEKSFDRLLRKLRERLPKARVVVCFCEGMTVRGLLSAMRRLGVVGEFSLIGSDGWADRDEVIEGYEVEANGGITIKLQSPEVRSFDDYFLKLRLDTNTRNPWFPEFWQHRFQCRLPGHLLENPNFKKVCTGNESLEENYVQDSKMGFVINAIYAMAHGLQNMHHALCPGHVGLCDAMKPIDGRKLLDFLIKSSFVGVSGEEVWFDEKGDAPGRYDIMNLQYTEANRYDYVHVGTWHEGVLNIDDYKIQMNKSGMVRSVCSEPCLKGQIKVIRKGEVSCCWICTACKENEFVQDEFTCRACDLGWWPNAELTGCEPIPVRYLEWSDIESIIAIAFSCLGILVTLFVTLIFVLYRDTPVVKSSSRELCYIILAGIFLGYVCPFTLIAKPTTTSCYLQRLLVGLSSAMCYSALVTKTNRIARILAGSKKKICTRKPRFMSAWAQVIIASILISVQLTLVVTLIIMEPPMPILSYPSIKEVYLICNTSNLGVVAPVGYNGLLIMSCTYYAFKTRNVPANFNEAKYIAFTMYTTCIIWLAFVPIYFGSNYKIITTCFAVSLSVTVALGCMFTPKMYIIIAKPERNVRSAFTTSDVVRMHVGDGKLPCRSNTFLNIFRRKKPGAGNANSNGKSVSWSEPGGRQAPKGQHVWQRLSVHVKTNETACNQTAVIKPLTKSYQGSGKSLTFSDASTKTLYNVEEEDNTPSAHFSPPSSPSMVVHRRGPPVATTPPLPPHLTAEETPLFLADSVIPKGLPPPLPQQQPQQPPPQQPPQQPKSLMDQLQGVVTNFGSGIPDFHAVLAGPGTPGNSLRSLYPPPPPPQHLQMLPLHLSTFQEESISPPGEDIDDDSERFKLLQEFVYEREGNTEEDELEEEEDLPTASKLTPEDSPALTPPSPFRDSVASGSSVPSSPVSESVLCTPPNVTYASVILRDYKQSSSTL

Turning to `CC(C)Nc1cc(-c2csc(N(C)C(=O)c3ccc(Cl)cc3)n2)ncn1`, in series [1], the IC50 (in general, the point on the concentration scale where inhibition reaches its midpoint) came to 47 nM and the affinity corresponds to a Ki of 22.2 nM. Moreover, the half-maximal inhibitory concentration (IC50) in series [2] was greater than 10000 nM.

On to `CC(C)Nc1cc(-c2csc(N(C)C(=O)c3ccc(C#N)cc3)n2)ncn1`, for which, in [1], the concentration for half-maximal inhibition (IC50) turned out to be 64.7 nM and the Ki (usually a dissociation constant, usually derived from enzyme kinetics or from competition with a known ligand) was found to be 27.3 nM. Further, the IC50 in [2] was greater than 10000 nM.

For the compound `Cc1ccc(C(=O)N(C)c2nc(-c3cc(NC(C)C)ncn3)cs2)cc1`, the outcome in series [3], in series [4], in series [6], in [7], in [8] and in [12] was Active. In addition, the result in series [15] was Active. Besides, the Activity in [5] amounted to 22.2 nM; in [11], 36.3 nM; in series [13], 27.5 nM. In addition, the IC50 in series [1] is 26.5 nM; in series [2] it was greater than 10000 nM. In series [1], this compound displayed an inhibition constant (Ki) of 13.6 nM. The outcome in [9] and in series [10] was inactive. Besides, the pH-dependent lipophilicity (logD) (as a rule, lipophilicity at a set pH, counting ionised and neutral species) in series [14] is 1.74.
